# In ChEMBL document CHEMBL5154935, “Design, Synthesis, and Biological Evaluation of Novel Evodiamine Derivatives as Potential Antihepatocellular Carcinoma Agents” (J Med Chem, 2022):
# Tests used:
# [1] = Antiproliferative activity against human L02 cells treated for 72 hrs by MTT assay; format: toxicity, cell-based
# [2] = system: SK-HEP1; assay: Antiproliferative activity against human SK-HEP1 cells treated for 72 hrs by MTT assay; format: functional, cell-based; settings: SK-HEP1, 72 h
# [3] = system: Huh-7; assay: Antiproliferative activity against human Huh-7 cells treated for 72 hrs by MTT assay; format: functional, cell-based; settings: Huh-7, 72 h
# [4] = system: HCCLM9; assay: Antiproliferative activity against human HCCLM9 cells treated for 72 hrs by MTT assay; format: functional, cell-based; settings: HCCLM9, 72 h
# [5] = system: HepG2; assay: Antiproliferative activity against human HepG2 cells treated for 72 hrs by MTT assay; format: functional, cell-based; settings: HepG2, 72 h
# [6] = system: SMMC-7721; assay: Antiproliferative activity against human SMMC-7721 cells treated for 72 hrs by MTT assay; format: functional, cell-based; settings: SMMC-7721, 72 h
# [7] = target: DNA topoisomerase 2-alpha (Homo sapiens) (UniProt P11388); assay: Inhibition of human Top2-alpha expressed in baculovirus assessed as inhibition of relaxation of supercoiled pBR322 plasmid DNA at 100 uM incubated for 30 mins in presence of ATP by ethidium bromide staining based agarose gel electrophoresis analysis relative to control
# Sequence of DNA topoisomerase 2-alpha (Homo sapiens) (P11388 whole entry): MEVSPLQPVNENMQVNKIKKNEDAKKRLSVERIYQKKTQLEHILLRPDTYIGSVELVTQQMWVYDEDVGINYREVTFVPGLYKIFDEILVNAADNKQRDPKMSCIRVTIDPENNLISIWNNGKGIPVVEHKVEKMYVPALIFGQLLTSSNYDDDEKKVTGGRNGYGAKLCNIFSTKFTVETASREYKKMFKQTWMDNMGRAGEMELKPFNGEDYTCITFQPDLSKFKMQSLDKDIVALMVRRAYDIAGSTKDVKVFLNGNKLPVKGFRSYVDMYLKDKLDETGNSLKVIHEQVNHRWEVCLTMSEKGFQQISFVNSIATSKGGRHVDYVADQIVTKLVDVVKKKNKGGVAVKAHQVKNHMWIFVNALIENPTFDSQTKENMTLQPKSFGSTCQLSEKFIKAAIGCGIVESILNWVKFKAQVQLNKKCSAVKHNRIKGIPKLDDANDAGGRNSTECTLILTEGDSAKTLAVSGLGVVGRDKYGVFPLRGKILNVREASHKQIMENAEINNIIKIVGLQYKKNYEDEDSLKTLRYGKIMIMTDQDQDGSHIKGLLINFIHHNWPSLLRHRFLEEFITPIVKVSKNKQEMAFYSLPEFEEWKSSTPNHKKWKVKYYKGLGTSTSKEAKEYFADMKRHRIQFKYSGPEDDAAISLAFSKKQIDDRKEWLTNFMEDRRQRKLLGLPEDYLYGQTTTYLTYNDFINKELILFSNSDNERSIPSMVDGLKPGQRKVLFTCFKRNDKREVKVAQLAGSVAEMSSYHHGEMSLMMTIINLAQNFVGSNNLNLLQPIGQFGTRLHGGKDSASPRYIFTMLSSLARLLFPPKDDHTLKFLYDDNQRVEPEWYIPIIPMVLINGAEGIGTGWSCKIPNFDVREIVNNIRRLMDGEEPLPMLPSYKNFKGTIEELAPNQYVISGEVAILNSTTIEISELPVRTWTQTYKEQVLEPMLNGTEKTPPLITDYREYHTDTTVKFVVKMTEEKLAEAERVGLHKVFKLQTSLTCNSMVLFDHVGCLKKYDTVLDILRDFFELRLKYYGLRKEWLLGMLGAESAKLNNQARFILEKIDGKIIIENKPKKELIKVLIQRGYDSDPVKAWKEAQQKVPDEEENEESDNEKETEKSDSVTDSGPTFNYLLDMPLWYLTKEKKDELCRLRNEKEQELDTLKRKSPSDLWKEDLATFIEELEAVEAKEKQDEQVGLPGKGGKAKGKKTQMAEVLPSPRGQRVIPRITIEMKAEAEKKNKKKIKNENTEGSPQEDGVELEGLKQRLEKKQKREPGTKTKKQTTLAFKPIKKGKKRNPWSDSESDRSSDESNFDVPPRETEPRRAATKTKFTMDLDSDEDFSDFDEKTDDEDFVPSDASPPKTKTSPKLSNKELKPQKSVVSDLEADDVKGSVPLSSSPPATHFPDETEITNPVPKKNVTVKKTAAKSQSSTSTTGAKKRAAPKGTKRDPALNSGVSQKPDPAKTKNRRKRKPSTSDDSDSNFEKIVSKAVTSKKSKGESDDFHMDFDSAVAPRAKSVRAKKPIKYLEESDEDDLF
# [8] = target: T1, DNA topoisomerase 1 (Homo sapiens) (UniProt P11387); assay: Inhibition of Top1 (unknown origin) assessed as inhibition of relaxation of supercoiled pBR322 plasmid DNA at 12.5 uM incubated for 25 mins by ethidium bromide staining based agarose gel electrophoresis analysis relative to control
# T1 sequence (whole entry): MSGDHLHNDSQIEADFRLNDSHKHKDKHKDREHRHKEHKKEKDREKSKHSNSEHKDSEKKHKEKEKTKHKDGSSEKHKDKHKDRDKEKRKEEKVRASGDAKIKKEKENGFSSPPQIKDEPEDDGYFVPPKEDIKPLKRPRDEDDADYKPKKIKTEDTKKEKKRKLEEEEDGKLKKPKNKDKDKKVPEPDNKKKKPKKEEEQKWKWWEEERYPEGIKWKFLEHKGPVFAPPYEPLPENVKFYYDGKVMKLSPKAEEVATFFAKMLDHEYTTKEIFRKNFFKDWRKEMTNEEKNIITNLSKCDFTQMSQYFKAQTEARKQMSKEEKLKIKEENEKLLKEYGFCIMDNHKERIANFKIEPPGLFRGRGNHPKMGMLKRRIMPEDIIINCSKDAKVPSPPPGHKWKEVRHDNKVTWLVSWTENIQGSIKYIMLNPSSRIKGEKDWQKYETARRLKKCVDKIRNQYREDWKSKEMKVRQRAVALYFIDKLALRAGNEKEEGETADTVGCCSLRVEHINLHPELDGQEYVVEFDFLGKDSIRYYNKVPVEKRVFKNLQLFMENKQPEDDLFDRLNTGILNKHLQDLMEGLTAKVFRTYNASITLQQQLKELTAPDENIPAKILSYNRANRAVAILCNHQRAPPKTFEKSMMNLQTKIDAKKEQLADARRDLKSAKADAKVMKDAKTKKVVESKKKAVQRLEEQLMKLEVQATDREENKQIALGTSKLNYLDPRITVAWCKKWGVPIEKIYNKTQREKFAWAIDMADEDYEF
# [9] = target: T1, DNA topoisomerase 1 (Homo sapiens); assay: Inhibition of Top1 (unknown origin) assessed as inhibition of relaxation of supercoiled pBR322 plasmid DNA at 50 uM incubated for 25 mins by ethidium bromide staining based agarose gel electrophoresis analysis relative to control
Compound,IC50 at 72 h [1] [µM],IC50 [2] [µM],IC50 [3] [µM],IC50 [4] [µM],IC50 [5] [µM],IC50 [6] [µM],inhibition [7] [%],inhibition [8] [%],inhibition [9] [%]
COc1ccc2[nH]c3c(c2c1)CCN1C(=O)c2cc(F)ccc2N(c2ccc(Br)c(F)c2)C31 (stereo unspecified),> 6,> 18,> 18,> 18,15.9,> 18,,,
CCOc1ccc2[nH]c3c(c2c1)CCN1C(=O)c2cc(F)cc(F)c2N(c2cccc(F)c2)C31 (stereo unspecified),1.8,1.34,0.6,0.89,0.85,0.92,48.3,50.8,66.7
COc1ccc2[nH]c3c(c2c1)CCN1C(=O)c2cc(F)ccc2N(c2ccc(Cl)c(F)c2)C31 (stereo unspecified),2.69,8.9,7.68,6.9,6.44,6.92,,,
COc1ccc2[nH]c3c(c2c1)CCN1C(=O)c2cc(F)ccc2N(c2cc(F)ccc2C)C31 (stereo unspecified),> 6,8.91,11.2,> 18,7.19,9.18,,,
COc1ccc2[nH]c3c(c2c1)CCN1C(=O)c2cc(F)ccc2N(c2cc(C)cc(F)c2)C31 (stereo unspecified),> 6,7.3,6.99,12,7.3,8.15,,,
COc1ccc2[nH]c3c(c2c1)CCN1C(=O)c2cc(F)ccc2N(c2ccc(F)c(F)c2)C31 (stereo unspecified),3.46,1.35,1.19,2.67,1.34,1.48,,,
COc1ccc2[nH]c3c(c2c1)CCN1C(=O)c2cc(F)ccc2N(c2cc(F)cc(Br)c2)C31 (stereo unspecified),5.97,4.21,,7.75,4.36,5.77,,,
COc1ccc2[nH]c3c(c2c1)CCN1C(=O)c2cc(F)ccc2N(c2cc(F)ccc2Cl)C31 (stereo unspecified),> 6,16.5,11.5,> 18,8.71,10.9,,,
O=C1c2cc(F)cc(F)c2N(c2cccc(F)c2)C2c3[nH]c4ccccc4c3CCN12 (stereo unspecified),0.95,0.27,0.03,0.28,0.39,0.27,52.6,27.7,94.4
COc1cc(F)cc(N2c3ccc(F)cc3C(=O)N3CCc4c([nH]c5ccc(OC)cc45)C32)c1 (stereo unspecified),5.78,3.15,3.66,4.21,2.91,3.98,,,
CC[C@@]1(O)C(=O)OCc2c1cc1n(c2=O)Cc2cc3ccccc3nc2-1,,,,,,,70.2,,
COc1ccc2[nH]c3c(c2c1)CCN1C(=O)c2cc(F)ccc2N(c2cc(F)ccc2Br)C31 (stereo unspecified),> 6,14.7,11.4,> 18,13.1,13,,,
COc1ccc2[nH]c3c(c2c1)CCN1C(=O)c2cc(F)ccc2N(c2cc(F)cc(F)c2)C31 (stereo unspecified),> 6,3.97,3.61,6.34,2.91,2.97,,,
COc1ccc2[nH]c3c(c2c1)CCN1C(=O)c2cc(F)cc(F)c2N(c2cccc(F)c2)C31 (stereo unspecified),1.56,0.27,0.23,39,0.27,0.35,65.2,20.1,48.4
COc1ccc2[nH]c3c(c2c1)CCN1C(=O)c2cc(F)c(F)cc2N(c2cccc(F)c2)C31 (stereo unspecified),> 6,7.21,7.69,10.8,6.98,7.14,,,
COc1ccc2[nH]c3c(c2c1)CCN1C(=O)c2cc(F)ccc2N(c2cc(F)ccc2OC)C31 (stereo unspecified),> 6,> 18,> 18,> 18,> 18,> 18,,,
COc1ccc2[nH]c3c(c2c1)CCN1C(=O)c2cc(F)ccc2N(c2ccc(C)c(F)c2)C31 (stereo unspecified),> 6,6.96,6.34,6.62,4.62,5.9,,,
O=C1c2cc(F)cc(F)c2N(c2cccc(F)c2)C2c3[nH]c4ccc(Cl)cc4c3CCN12 (stereo unspecified),1.37,0.11,0.29,0.14,0.68,0.77,65.2,75.4,90.1
COc1ccc2[nH]c3c(c2c1)CCN1C(=O)c2cc(F)ccc2N(c2ccc(OC)c(F)c2)C31 (stereo unspecified),> 6,4.55,4.32,6.04,4.67,4.38,,,
COc1ccc2[nH]c3c(c2c1)CCN1C(=O)c2cc(F)ccc2N(c2cc(F)ccc2F)C31 (stereo unspecified),4.67,5.78,7.75,3.78,2.8,3.98,,,
COc1ccc2[nH]c3c(c2c1)CCN1C(=O)c2cc(F)ccc2N(c2cc(F)cc(Cl)c2)C31 (stereo unspecified),5.44,5.01,4.87,7.05,3.92,5.11,,,
Cc1ccc2[nH]c3c(c2c1)CCN1C(=O)c2cc(F)cc(F)c2N(c2cccc(F)c2)C31 (stereo unspecified),1.4,0.48,0.02,0.31,0.51,0.49,67.6,7.29,83.7
